The source of these data is patent US6372449B1, “Opthalmic methods and uses” (priority 1999, dated 2002).

The subject of data set [1] is ocular structures. Conditions: prior-art dyes, general statement; cited from earlier work.
The subject of data set [2] is epiretinal and internal limiting membrane of the retina. Kind of data set: Staining of the inner limiting membrane with trypan blue solution during pars plana vitrectomy. It counts as in vivo, patient. Conditions: 0.1% w/w in physiological saline, instilled, left for 30 seconds, aspirated and irrigated; Patients A and B. An excerpt:
In respect of retinal surgery for the removal of aberrant membranes or for the peeling of epiretinal and internal limiting membranes of the retina, the vitreous gel of the eye is removed by a technique known as pars plana vitrectomy, with stripping of the outer (cortical) vitreous. In place of the vitreous gel, infusion fluid is introduced into the eye via an infusion port. The inner limiting membrane may then be stained with trypan blue solution (for example 0.1% w/w) instilled with a fine silicone-tipped extrusion needle, left for 30 seconds to stain the membrane, aspirated, followed by irrigation of the area with balanced salt (physiological) solution. Peeling of the membrane proceeds and is greatly facilitated because of improved visualization of the extent of the membrane. The procedure is then completed in standard fashion with fluid-gas exchange.
Patient A required peeling of epiretinal and internal limiting membrane of the retina as part of the surgical management of premacular fibrosis and macular hole conditions.
Patient B is a diabetic suffering from severe diabetic retinopathy, with proliferative vitreo retinopathy.
A 0.1% w/w solution of trypan blue in physiological saline is prepared.
In each patient the vitreous gel of the eye is removed by pars plana vitrectomy an established procedure in the art, which involves stripping of the outer (cortical) vitreous. […]

In another data set the test system is trabecular meshwork. As to the kind of experiment: Marking of the trabecular meshwork with trypan blue before laser treatment in glaucoma. It counts as in vivo. Conditions: Patient C. An excerpt: Eye pressure is regulated in part by flow of ocular fluid (aqueous humour) through a biological valve, known as the trabecular meshwork. In glaucoma, a pathological condition where the eye pressure is raised, the eye pressure may be lowered by application of a laser energy source to the trabecular meshwork. In the prior art the success of this technique generally depends upon the presence of sufficient natural pigmentation of the trabecular meshwork which will absorb the laser energy. Using trypan blue to mark the trabecular meshwork improves identification of this structure, and the uptake of laser energy. A trypan blue solution is instilled into the eye in the location of the trabecular meshwork, and after a short time period such as from 10 seconds to one minute, the trypan blue solution is removed and the area generally irrigated to remove excess trypan blue. The now marked trabecular meshwork can be readily visually distinguished, and laser application can take place. Other ocular structures may be marked in the same manner so as to enable identification and if necessary surgical or other treatment.
Patient C is a glaucoma sufferer who has elevated eye pressure. 0.1% trypan blue is instilled into the eye of patient C through a cannular, introducing the trypan blue solution in the area with trabecular meshwork.

The subject of data set [3] is ocular structures. Kind of data set: Toxicity and permanence of staining of dyes used in the eye. To be noted: trypan blue, general statement. An excerpt:
A number of dyes have been used in the eye to identify vital structures, examples of dyes used include indocyanin green, rose bengal, gentian violet and methylene blue.

Each structure is given as a SMILES string.

For `CN(C)c1ccc(C(=C2C=CC(=[N+](C)C)C=C2)c2ccc(N(C)C)cc2)cc1` [gentian violet], the “toxicity to ocular structures” value in the data set on ocular structures [1] is given as “toxic to ocular structures”.

In the case of `CC1(C)C(/C=C/C=C/C=C/C=C2\N(CCCCS(=O)(=O)[O-])c3ccc4ccccc4c3C2(C)C)=[N+](CCCCS(=O)(=O)[O-])c2ccc3ccccc3c21.[Na+]` [indocyanin green], the “toxicity to ocular structures” value with ocular structures [1] is “toxic to ocular structures”.

Consider `Cc1cc(-c2ccc(/N=N/c3c(S(=O)(=O)O)cc4cc(S(=O)(=O)O)cc(N)c4c3O)c(C)c2)ccc1/N=N/c1c(S(=O)(=O)O)cc2cc(S(=O)(=O)O)cc(N)c2c1O` [trypan blue], for which, in data set [2], the “visual identification of membranes after staining” value is recorded as “readily identified”. For the same compound, the “visualization of the trabecular meshwork” value in the data set on trabecular meshwork (0.1% trypan blue instilled through a cannular, glaucoma) is on record as “visualized by simple visual identification”. In the data set with trabecular meshwork (0.1% trypan blue marking followed by laser light, elevated eye pressure), the “eye pressure after laser treatment” value is “Successful lowering of eye pressure”. In addition, the “uptake of laser energy” value in the data set with trabecular meshwork (0.1% trypan blue, after irrigation, area subject to laser light) is “improving uptake of laser energy”. In the data set with ocular structures [3], the “reversibility of staining of eye structures” value is reported as “does not irreversibly stain eye structures” and the “toxicity in the eye” value is given as “non-toxic”.

In the case of `O=C([O-])c1c(Cl)c(Cl)c(Cl)c(Cl)c1-c1c2cc(I)c(=O)c(I)c-2oc2c(I)c([O-])c(I)cc12.[Na+].[Na+]` [rose bengal], the “toxicity to ocular structures” value with ocular structures [1] is listed as “toxic to ocular structures”.

For `CN(C)c1ccc2nc3ccc(=[N+](C)C)cc-3sc2c1` [methylene blue], the “toxicity to ocular structures” value with ocular structures [1] is “toxic to ocular structures”.
